Values after ≈ are worked out from the molar mass of the structure shown.
What was measured:
[1] = target: T1, L-2,3-diaminopropanoate--citrate ligase (Staphylococcus aureus (strain NCTC 8325 / PS 47)) (UniProt Q2G1M9); experiment: Inhibition of Staphylococcus aureus SbnE at 50 uM incubated for 1 hr by malachite green staining based microplate reader analysis relative to control
T1 sequence (whole entry): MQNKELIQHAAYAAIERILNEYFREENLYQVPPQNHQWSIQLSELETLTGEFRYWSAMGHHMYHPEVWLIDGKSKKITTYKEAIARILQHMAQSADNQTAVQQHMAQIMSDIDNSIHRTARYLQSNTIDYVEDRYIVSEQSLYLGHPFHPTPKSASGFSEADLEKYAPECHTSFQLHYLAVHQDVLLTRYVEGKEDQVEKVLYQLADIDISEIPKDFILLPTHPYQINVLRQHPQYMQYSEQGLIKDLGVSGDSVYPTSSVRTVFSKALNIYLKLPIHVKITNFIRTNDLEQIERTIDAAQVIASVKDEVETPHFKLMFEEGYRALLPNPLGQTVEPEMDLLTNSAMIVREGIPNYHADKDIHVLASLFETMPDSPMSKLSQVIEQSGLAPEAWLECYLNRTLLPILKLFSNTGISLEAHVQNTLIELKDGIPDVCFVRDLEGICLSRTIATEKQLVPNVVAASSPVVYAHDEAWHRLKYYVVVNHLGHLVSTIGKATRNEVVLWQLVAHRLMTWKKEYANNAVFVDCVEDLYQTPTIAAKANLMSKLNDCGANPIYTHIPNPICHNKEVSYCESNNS

Staphylococcus aureus [2] = experiment: Antibacterial activity against methicillin resistant Staphylococcus aureus CCARM3167 assessed as inhibition in bacterial growth incubated for 18 hrs by microdilution method; type: functional
Staphylococcus aureus [3] = experiment: Antibacterial activity against […] Staphylococcus aureus ATCC25923 assessed as inhibition in bacterial growth incubated for 18 hrs by microdilution method; type: functional
[4] = target: T2, L-2,3-diaminopropanoate--citrate ligase (Staphylococcus aureus (strain NCTC 8325 / PS 47), UniProt Q2G1M9); experiment: Inhibition of Staphylococcus aureus SbnE incubated for 1 hr by malachite green staining based microplate reader analysis
T2 sequence (Q2G1M9 whole entry): T1 sequence (whole entry)

| SMILES | inhibition [1] | MIC (Staphylococcus aureus [2]) | MIC (Staphylococcus aureus [3]) | IC50 [4] |
| --- | --- | --- | --- | --- |
| CC(C)C[C@H]([C@H](O)CCNc1cc(Cl)c(F)cc1[N+](=O)[O-])[C@@H](O)c1cc(O)cc(O)c1 | 6.49% | 256 µg/mL (≈ 560 µM) | 128 µg/mL (≈ 280 µM) |  |
| CC(C)C[C@H]([C@H](O)CCNc1cccc([N+](=O)[O-])c1)[C@@H](O)c1cc(O)cc(O)c1 | 5.19% | 256 µg/mL (≈ 633 µM) | 64 µg/mL (≈ 158 µM) |  |
| CC(C)C[C@H]([C@H](O)CCNCc1ccco1)[C@@H](O)c1cc(O)cc(O)c1 | 34.5% | > 256 µg/mL | > 256 µg/mL |  |
| CCN(CC[C@@H](O)[C@@H](CC(C)C)[C@@H](O)c1cc(O)cc(O)c1)Cc1ccccc1 | 5.19% | 16 µg/mL (≈ 39.8 µM) | 16 µg/mL (≈ 39.8 µM) |  |
| Cc1ccc(NCC[C@H](O)[C@@H](CC(C)C)[C@@H](O)c2cc(O)cc(O)c2)c(Cl)c1 | 54.8% | 64 µg/mL (≈ 157 µM) | 64 µg/mL (≈ 157 µM) | 18.9 µM |
| CC(C)C[C@@H]([C@@H](O)C[C@H](O)CC[C@@H](C)C[C@H](C)C[C@@H](C)CO)[C@@H](O)c1cc(O)cc(O)c1 | 59.1% | > 256 µg/mL | > 256 µg/mL | 28.5 µM |
| CC(C)C[C@H]([C@H](O)CC(O)C#C[C@@H](C)C[C@@H](C)C[C@@H](C)CO)[C@@H](O)c1cc(O)cc(O)c1 (stereo partly drawn) | 74.7% | 64 µg/mL (≈ 142 µM) | 64 µg/mL (≈ 142 µM) | 6.76 µM |
| C[C@@H](COCc1ccccc1)C[C@H](C)C[C@H](C)C#CC(O)CC(O)C[C@@H](O)c1cc(O)cc(O)c1 (single isomer, unassigned) | 33.6% | 64 µg/mL (≈ 132 µM) | 64 µg/mL (≈ 132 µM) |  |
| CCC[C@@H](O)[C@@H](CC(C)C)[C@@H](O)c1cc(O)cc(O)c1 | 25.6% | > 256 µg/mL | > 256 µg/mL |  |
| CC(C)C[C@H]([C@H](O)CCNc1ccc(Cl)cc1Cl)[C@@H](O)c1cc(O)cc(O)c1 | 41.8% | 4 µg/mL (≈ 9.34 µM) | 8 µg/mL (≈ 18.7 µM) |  |
| Cc1ccc([N+](=O)[O-])cc1NCC[C@@H](O)[C@@H](CC(C)C)[C@@H](O)c1cc(O)cc(O)c1 | 32% | 64 µg/mL (≈ 153 µM) | 32 µg/mL (≈ 76.5 µM) |  |
| CC(C)C[C@H]([C@H](O)CCNc1c(Cl)cccc1Cl)[C@@H](O)c1cc(O)cc(O)c1 | 26.8% | 128 µg/mL (≈ 299 µM) | 256 µg/mL (≈ 598 µM) |  |
| CC(C)C[C@H]([C@H](O)CCNc1ccc(O)cc1)[C@@H](O)c1cc(O)cc(O)c1 | 8.18% | > 256 µg/mL | 64 µg/mL (≈ 170 µM) |  |
| CCC(O)[C@H](C)C[C@H](C)C[C@H](C)CC[C@@H](O)C[C@@H](O)[C@@H](CC(C)C)[C@@H](O)c1cc(O)cc(O)c1 (stereo partly drawn) | 58.7% | 32 µg/mL (≈ 66.3 µM) | 32 µg/mL (≈ 66.3 µM) | 17.1 µM |
| CC(C)C[C@@H]([C@H](O)CCCC[C@@H](C)C[C@H](C)C[C@@H](C)CO)[C@@H](O)c1cc(O)cc(O)c1 | 79.4% | > 256 µg/mL | > 256 µg/mL | 10.5 µM |
| CC(C)C[C@H]([C@H](O)CCNc1ccccc1)[C@@H](O)c1cc(O)cc(O)c1 | 75.1% | 8 µg/mL (≈ 22.3 µM) | 4 µg/mL (≈ 11.1 µM) | 18.2 µM |
| CC(C)C[C@H]([C@H](O)CCO)[C@@H](O)c1cc(O)cc(O)c1 | 28.3% | > 256 µg/mL | > 256 µg/mL |  |
| CC(C)C[C@H]([C@H](O)CCNc1ccn(C)n1)[C@@H](O)c1cc(O)cc(O)c1 | 48.2% | 128 µg/mL (≈ 352 µM) | 128 µg/mL (≈ 352 µM) |  |
| CC(C)C[C@H]([C@H](O)CCNc1ccccn1)[C@@H](O)c1cc(O)cc(O)c1 | 36.4% | > 256 µg/mL | > 256 µg/mL |  |
